Measured values from PMC10649913 (Journal for Immunotherapy of Cancer, 2023).

What was measured:
[1] = test system: AhR; settings: cited from earlier work
[2] = cited from earlier work
[3] = test system: coculture of H1299 NSCLC cells, primary human PBMCs, and primary human fibroblasts; assay: BioMAP Oncology Panel; type: cell-based; settings: 0.37, 1.1, or 3.3 µM, 48 hours
[4] = test system: human T cells cocultured with moDCs; assay: Human mixed lymphocyte reaction; type: cell-based; settings: LPS and IFN-γ-matured moDCs, 3 days, 1 nM–1 µM

Compound: CC(C)n1cnc2c(NCCc3ccc(O)cc3)nc(-c3csc4ccccc34)nc21 [SR1]
- Mouse cross-reactivity [1]: not mouse cross-reactive

Compound: Cc1ccccc1N=Nc1ccc(NC(=O)c2ccnn2C)c(C)c1 [CH-223191]
- AhR-independent activities [2]: AhR-independent proproliferative activities

Compound: NS(=O)(=O)NCCNc1nonc1C(=NO)Nc1ccc(F)c(Br)c1 [epacadostat]
- Cytokine production (IFN-γ, IL-17, IL-2, IL-6, TNF-α) [3]: predominantly anti-inflammatory responses with decreases in IFN-γ, IL-2, IL-6, and IL-17
- IL-2 production from T cells (MLR) [4]: no effect
